Here are results for one sequence from publication PMC10933344, “A lncRNA Dleu2-encoded peptide relieves autoimmunity by facilitating Smad3-mediated Treg induction” (EMBO Reports, 2024).

One experiment concerns naive CD4+ T cells. Put plainly: In vitro iTreg differentiation (Foxp3+ of CD4+ cells). Type of experiment: cell-based, mouse. The conditions noted are these: 20 μM, 72 h. As for the experimental part:
C57BL/6 mice were sacrificed, and their spleens and peripheral lymph nodes were removed and gently dissociated into single-cell suspensions. Naive T cells were isolated using the Mouse CD4 Naive T Cell Isolation Kit (BioLegend, Stem Cell, or Thermo Fisher Scientific). Flow cytometry verified that the purity (CD4^+CD25^−CD62L^hi) of the enriched subpopulation was typically higher than 95%. All T cells were cultured using RPMI-1640 medium (Gibco) supplemented with 10% heat-inactivated fetal bovine serum (Gibco), 2 mM L-glutamine (Gibco), 10,000 units/mL of penicillin, 10,000 µg/mL of streptomycin, and 25 µg/mL of Gibco Amphotericin B (Thermo Fisher Scientific), 10 mM HEPES (Gibco), 1 mM Sodium pyruvate, MEM Non-Essential Amino Acids (Life Technologies) and 55 μM β-mercaptoethanol (Gibco). 0.1 million naive CD4^+ T cells were activated with plate-coated anti-CD3 (2.5 μg/ml; BD Biosciences) and soluble anti-CD28 (2 μg/ml; BD Biosciences) antibodies. The Th1 cell differentiation condition included recombinant murine (rm)IL-12 (10 ng/ml, PeproTech) and anti-IL-4 (10 μg/ml, BioLegend). The Th17 cell differentiation condition included rmIL-6 (10 ng/ml, PeproTech), rmTGF-β1 (5 ng/ml, PeproTech), rmIL-23 (10 ng/ml, PeproTech), anti-IL-4 (5 μg/ml, BioLegend) and anti-IFN-γ (10 μg/ml, eBioscience). The inducible T regulatory cell (iTreg) differentiation condition included rmTGF-β (5 ng/ml, PeproTech). 0.1 million naive CD8^+ T cells were activated with plate-coated anti-CD3 (10 μg/ml; BD Biosciences) and plate-coated anti-CD28 (10 μg/ml; BD Biosciences) antibodies. The Tc17 cell differentiation condition included rmIL-6 (10 ng/ml, PeproTech), rmTGF-β1 (2 ng/ml, PeproTech), rmIL-23 (25 ng/ml, PeproTech), rmIL1-β (5 ng/ml, PeproTech), and anti-IFN-γ (10 μg/ml, eBioscience). The Tc1 cell differentiation condition included rmIL-2 (5 ng/ml, PeproTech) and rm IL-12 (1 ng/ml, PeproTech). Different concentrations of Dleu2-17aa and scrPEP (Genscript) were added to the T cell culture from the beginning unless specified. Cells were cultured in U-bottom 96-well plates for 72 h and detected by flow cytometry.
For in vitro mouse T cell differentiation, after 72 h of induction, cells were activated for 4–6 h at 37 °C with the Cell Stimulation Cocktail (Thermo Fisher Scientific) if intracellular cytokine staining is needed, surface markers were stained in FACS buffer (PBS containing 2% FBS) for 30 min at 4 °C protected from light. Cells were then fixed and permeabilized with the Foxp3 Staining Buffer Set (eBioscience) or BD Cytofix/Cytoperm (BD Biosciences) and were stained with fluorescent antibodies. After washing, stained cells were assayed with an LSRFortessa (BD) flow cytometer, and data were analyzed with FlowJo software. Single-cell suspensions from EAE mouse spleen or CNS (day 16 post-immunization) were derived through mechanical separation and passage through a 70-μm filter (Fisherbrand) and analyzed using similar steps. For flow cytometry, antibodies against CD4 (clone GK1.5, 1:200), CD62L (clone MEL-14, 1:200), CD44 (clone IM7, 1:200), CD25 (clone PC61.5, 1:200), IL-17A (clone eBio17B7, 1:200), IFN-γ (clone XMG1.2, 1:200), FoxP3 (clone FJK-16s, 1:200), CD184 (clone 2B11/CXCR4, 1:100), CD152 (clone BNI3 1:100) and CD357 (clone DTA-1 1:100) were from eBioscience, CD3 (clone 145-2C11, 1:200) was from Biolegend and TGFBI (1:100) were from proteintech. For Dleu2-17aa expression detection, C57BL/6 mice were sacrificed, and their spleens were removed and gently dissociated into single-cell suspensions. An Fc blocker was used to reduce potential nonspecific antibody staining caused by IgG. Surface staining was performed using monoclonal antibodies against CD45 (clone 30-F11), CD3 (clone 145-2C11), CD19 (clone SJ25C1), CD11c (clone N418), MHCII (clone M5/114.15.2), F4/80 (clone BM8) all at a dilution of 1:200 (from Biolengend) followed by fixation and permeabilization of the nuclear membrane BD Cytofix/Cytoperm (BD Biosciences). […]

The test system of experiment [1] is Foxp3 CNS1-luciferase reporter / Smad3. Description: Foxp3 CNS1-luciferase reporter assay in NIH/3T3 cells. The conditions noted are these: 20 μM. The experiment is classed as cell-based, mouse. As for the experimental part: Figure 4 Dleu2-17aa modulates TGF-β/Smad signaling to promote Foxp3 transcription. (A) qPCR analysis of TGF-β/Smad signaling downstream genes in CD4^+ T cells treated with Dleu2-17aa or scrPEP for 24 h and challenged with TGF-β to activate the signaling pathway (n = 3). (B) NIH/3T3 cells were transfected with a Foxp3 CNS1-luciferase reporter plasmid and a Smad3 expression vector. Subsequently, the cells were treated with either Dleu2-17aa or scrPEP. Luciferase activity fold induction was quantified (n = 3). (C) Foxp3 CNS1 region enrichment by Smad3 treated with or without Dleu2-17aa for 24 h in CD4^+ T cells was assessed by ChIP-qPCR (n = 3). (D) EMSA was performed in NIH/3T3 cell nuclear lysates using a 10 μM biotin-labeled Foxp3 probe and treated with Dleu2-17aa or scrPEP (3, 10, 30 μM). There were band shifts to a higher molecular weight and an increase in band intensity by Dleu2-17aa treatment. Data information: n indicates biological replicate. Error bars are mean ± SEM; **P < 0.01, and ***P < 0.001. Statistical analysis was by two-tailed Student’s t-test for (A–C). Source data are available online for this figure.
NIH/3T3 cells were seeded at 5 × 10^5 cells/well in 24-well plates and transfected with 0.2 μg/well of pGL3 Foxp3 CNS1-luciferase reporter and the internal control vector pRL-TK (Promega) at a ratio of 10:1 (reporter construct: control vector) using LipofectamineTM 2000 according to the manufacturer’s protocol; For specific groups, co-transfect with pcDNA3.1-Smad3, an empty vector served as the control. After 7 h, remove the transfection medium and replace it with fresh medium containing either 20 μM Dleu2-17aa or PBS. 24 h post-transfection, luciferase activity was measured using the Dual-Luciferase® Reporter Assay System (Promega) according to the manufacturer’s protocol.
(In a reporter assay the amount or activity of a reporter protein is the signal.)

As for “ARGPARRMRGGRRRRLR [scrPEP, scrambled control peptide of Dleu2-17aa]”, the “Foxp3+/ CD4+ Cells (%)” value came out at 32.8% in the experiment with naive CD4+ T cells (replicate 1); 22.9% with naive CD4+ T cells (replicate 2); 16.77% in the experiment with naive CD4+ T cells (replicate 3); 32.13% in the experiment with naive CD4+ T cells (replicate 4); 22.9% with naive CD4+ T cells (replicate 5); 10.3% in the experiment on naive CD4+ T cells (replicate 6). In addition, in the experiment with naive CD4+ T cells (replicate 7), the “Foxp3+/ CD4+ Cells (%)” value was determined as 30.6%. The Relative luciferase activity in experiment [1] (with Smad3 vector, replicate 1) was 2.57; in experiment [1] (with Smad3 vector, replicate 2), 2.653; in experiment [1] (with Smad3 vector, replicate 3), 2.615; in experiment [1] (without Smad3 vector, replicate 1), 0.9636; in experiment [1] (without Smad3 vector, replicate 2), 0.91; in experiment [1] (without Smad3 vector, replicate 3) it was 1.069.
